What was measured:
Format in all cases: functional, organism-based
Human alphaherpesvirus 1 [1] = assay: In vitro antiviral activity was evaluated against HSV-1 using viral plaque reduction assay; Value ranges from […]
Human alphaherpesvirus 3 [2] = assay: In vitro antiviral activity was evaluated against VZV using viral plaque reduction assay; Value ranges from 0.02-0.08
Human betaherpesvirus 5 [3] = assay: In vitro antiviral activity was evaluated against HCMV using viral plaque reduction assay
Human alphaherpesvirus 2 = assay: In vitro antiviral activity was evaluated against HSV-2 using viral plaque reduction assay
Human alphaherpesvirus 3 [4] = assay: In vitro antiviral activity was evaluated against VZV using viral plaque reduction assay; Value ranges from 2-4
Human betaherpesvirus 5 [5] = assay: In vitro antiviral activity was evaluated against HCMV using viral plaque reduction assay; Value ranges from 4-40
Human alphaherpesvirus 1 [6] = assay: In vitro antiviral activity was evaluated against HSV-1 using viral plaque reduction assay; Value ranges from 0.7-2
Human alphaherpesvirus 1 [7] = assay: In vitro antiviral activity was evaluated against HSV-1 using viral plaque reduction assay
Human alphaherpesvirus 3 [8] = assay: In vitro antiviral activity was evaluated against VZV using viral plaque reduction assay
Human betaherpesvirus 5 [9] = assay: In vitro antiviral activity was evaluated against HCMV using viral plaque reduction assay; Value ranges from 20-40

Nc1nc(O)c2ncn([C@@H]3C[C@H](CO)C3CO)c2n1 (mixture of isomers)
IC50 (Human alphaherpesvirus 1 [1]): 40 nM
IC50 (Human alphaherpesvirus 3 [2]): 20 nM
IC50 (Human betaherpesvirus 5 [3]): 2000 nM
IC50 (Human alphaherpesvirus 2; Human alphaherpesvirus 2): 40 nM

Nc1nc(O)c2ncn([C@@H]3C(F)[C@H](CO)C3CO)c2n1 (mixture of isomers; form 1)
IC50 (Human alphaherpesvirus 3 [4]): 2000 nM
IC50 (Human betaherpesvirus 5 [5]): 4000 nM
IC50 (Human alphaherpesvirus 1 [6]): 700 nM
IC50 (Human alphaherpesvirus 2): 700 nM

Nc1nc(O)c2ncn([C@@H]3C(F)[C@H](CO)C3CO)c2n1 (mixture of isomers; form 2)
IC50 (Human alphaherpesvirus 1 [7]): > 250000 nM
IC50 (Human alphaherpesvirus 3 [8]): > 250000 nM
IC50 (Human betaherpesvirus 5 [3]): > 250000 nM
IC50 (Human alphaherpesvirus 2): > 250000 nM

Nc1nc2c(ncn2COCCO)c(=O)[nH]1 [ACYCLOVIR]
IC50 (Human alphaherpesvirus 1 [7]): 400 nM
IC50 (Human betaherpesvirus 5 [9]): 20000 nM
IC50 (Human alphaherpesvirus 2; Human alphaherpesvirus 2): 400 nM

— ChEMBL document CHEMBL1126501, “Differences in antiviral activities for isomers of a fluorinated cyclobutane nucleoside analog” (Bioorg Med Chem Lett, 1993)
